According to US5149778A, “Cyclic peptides for treating herpes infections” (Bio-Mega, Inc., priority 1989, dated 1992):
Where a SMILES comes first, the peptide text is derived from it. Bridges are numbered along the chain shown (N, C = ends). [ ]: non-standard residue; d: D form. NMeV = CN[C@H](C(=O)O)C(C)C

Target: T1, HSV-1 ribonucleotide reductase (Human herpesvirus 1, UniProt P08543)
T1 construct: obtained from quiescent BHK-21/C13 cells infected with strain F HSV-1 virus; endogenous in cells; host or cells: quiescent BHK-21/C13 cells infected with HSV-1 strain F (10 pfu/cell); partially purified viral enzyme
T1 sequence (P08543 whole entry): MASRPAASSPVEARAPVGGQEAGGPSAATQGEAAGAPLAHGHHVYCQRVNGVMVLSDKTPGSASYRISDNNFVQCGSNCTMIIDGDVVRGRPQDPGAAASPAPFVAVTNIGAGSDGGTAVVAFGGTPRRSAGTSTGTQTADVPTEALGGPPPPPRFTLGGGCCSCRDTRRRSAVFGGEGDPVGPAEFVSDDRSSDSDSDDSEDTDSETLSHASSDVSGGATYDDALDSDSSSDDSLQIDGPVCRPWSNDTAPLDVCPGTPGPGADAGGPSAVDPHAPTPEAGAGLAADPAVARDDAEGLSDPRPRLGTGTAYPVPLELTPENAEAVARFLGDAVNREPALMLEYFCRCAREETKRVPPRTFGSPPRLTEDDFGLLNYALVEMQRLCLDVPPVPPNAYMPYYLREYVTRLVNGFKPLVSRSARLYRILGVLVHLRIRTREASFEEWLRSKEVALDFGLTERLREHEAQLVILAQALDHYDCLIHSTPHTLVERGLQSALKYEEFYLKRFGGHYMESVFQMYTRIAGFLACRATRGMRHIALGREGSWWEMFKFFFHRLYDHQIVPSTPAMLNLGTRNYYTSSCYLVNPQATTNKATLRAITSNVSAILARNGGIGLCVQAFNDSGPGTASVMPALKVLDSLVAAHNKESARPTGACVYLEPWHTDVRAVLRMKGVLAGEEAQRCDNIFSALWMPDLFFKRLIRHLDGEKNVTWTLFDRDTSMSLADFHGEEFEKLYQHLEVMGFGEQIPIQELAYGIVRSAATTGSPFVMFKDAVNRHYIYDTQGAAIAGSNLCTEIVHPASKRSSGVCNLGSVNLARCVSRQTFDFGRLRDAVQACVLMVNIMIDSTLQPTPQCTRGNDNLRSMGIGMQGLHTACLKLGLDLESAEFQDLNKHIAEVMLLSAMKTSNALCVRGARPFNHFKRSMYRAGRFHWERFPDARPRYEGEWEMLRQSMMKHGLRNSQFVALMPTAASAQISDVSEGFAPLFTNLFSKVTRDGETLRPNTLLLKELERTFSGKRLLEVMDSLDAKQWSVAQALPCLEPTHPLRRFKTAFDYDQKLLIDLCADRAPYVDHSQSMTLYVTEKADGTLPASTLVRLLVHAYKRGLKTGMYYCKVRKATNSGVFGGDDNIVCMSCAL
Experiment: Inhibition of Herpes Simplex Virus (HSV, type 1) ribonucleotide reductase
Format: biochemical
Details: partially purified enzyme from BHK-21/C13 cells infected with strain F HSV-1; relative to control without peptide; mean of four assays; read-out: IC50 (concentration of the peptide producing 50% of the maximal inhibition of enzyme activity)
Text: Inhibition of Herpes Simplex Virus (HSV, type 1) Ribonucleotide Reductase
HSV-1 ribonucleotide reductase (partially purified) was obtained from quiescent BHK-21/C13 cells infected with strain F HSV-1 virus at 10 plaque forming units/cell as described by E. A. Cohen et al., J. Gen. Virol., 66, 733 (1985).
The procedure described by P. Gaudreau et al., J. Biol, Chem., 262, 12413 (1987) was employed. The assay result for each peptide is expressed as the concentration of the peptide producing 50% of the maximal inhibition (IC50) of enzyme activity. The number of units of the enzyme preparation used in each assay was constant, based on the specific activity of the enzyme preparation. The results are relative to the activity obtained in control experiments without peptide and represent the mean of four assays that varied less than 10% with each other.

| SMILES | IC50 [µM] |
| --- | --- |
| CC[C@H](C)[C@@H]1NC(=O)[C@H](C(C)C)NC(=O)[C@H](Cc2ccc(O)cc2)NC(=O)C[C@@H](C(=O)N[C@@H](CC(=O)O)C(=O)N[C@@H](CC(C)C)C(=O)O)NC1=O [example 1] (YVIDDL-OH; lactam N-4) | 14.3 |
| CC[C@H](C)[C@@H]1NC(=O)[C@H](C(C)C)N(C)C(=O)[C@H](Cc2ccc(O)cc2)NC(=O)C[C@@H](C(=O)N[C@@H](CC(=O)O)C(=O)N[C@@H](CC(C)C)C(=O)O)NC1=O [example 2] (Y[NMeV]IDDL-OH; lactam N-4) | 140 |
| CC[C@H](C)[C@@H]1NC(=O)[C@H](C(C)C)NC(=O)[C@H]([C@@H](C)O)NC(=O)CNC(=O)[C@H](C)NC(=O)[C@H](Cc2ccc(O)cc2)NC(=O)C[C@@H](C(=O)N[C@@H](CC(=O)O)C(=O)N[C@@H](CC(C)C)C(=O)O)NC1=O [example 3] (YAGTVIDDL-OH; lactam N-7) | 16 |
